Laboratory results reported in patent publication US7569593B2, “Compounds and compositions as protein kinase inhibitors” (IRM LLC, priority 2003, dated 2009).

What was measured:
Type in all cases: biochemical
[1] = molecular target: T1, SAPK2α (Homo sapiens, UniProt Q16539); test: Upstate KinaseProfiler radio-enzymatic filter binding assay; settings: at a concentration of 10 μM; 100% means complete inhibition; read-out: percentage inhibition of SAPK2α
T1 construct: purchased Upstate (KinaseProfiler panel)
T1 sequence (Q16539 whole entry): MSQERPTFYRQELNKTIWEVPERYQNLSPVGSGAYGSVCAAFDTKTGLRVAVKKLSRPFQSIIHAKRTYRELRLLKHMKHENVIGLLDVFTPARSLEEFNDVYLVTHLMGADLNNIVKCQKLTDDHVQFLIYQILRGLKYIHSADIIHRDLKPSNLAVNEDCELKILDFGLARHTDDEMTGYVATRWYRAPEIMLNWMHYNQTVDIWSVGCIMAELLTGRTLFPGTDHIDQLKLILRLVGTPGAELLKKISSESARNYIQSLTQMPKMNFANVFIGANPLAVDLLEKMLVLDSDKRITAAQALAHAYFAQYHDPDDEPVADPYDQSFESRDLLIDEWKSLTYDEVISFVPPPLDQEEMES
Procedure: (§1) Compounds of the invention are assessed for their ability to inhibit individual members of a panel of kinases (a partial, non-limiting list of kinases includes: Abl, BCR-Abl, EGF-R, c-erbB2 kinase (HER-2), PDGF-R, lck, SAPK2α, p38, TGFβ, KDR, c-Kit, b-RAF, c-RAF, FLTI and FLT4). The compounds are tested in duplicates at a final concentration of 10 μM following this generic protocol. Note that the kinase buffer composition and the substrates vary for the different kinases included in the “Upstate KinaseProfiler™” panel. Kinase buffer (2.5 μL, 10x—containing MnCl2 when required), active kinase (0.001-0.01 Units; 2.5 μL), specific or Poly(Glu4-Tyr) peptide (5-500 μM or .01mg/ml) in kinase buffer and kinase buffer ([…]; 5 μL) are mixed in an eppendorf on ice. A Mg/ATP mix (10 μL; 67.5 (or 33.75) mM MgCl2, 450 (or 225) μM ATP and 1 μCi/μl [γ-^32P]-ATP (3000 Ci/mmol)) is added and the reaction is incubated at about 30° C. for about 10 minutes. The reaction mixture is spotted (20 μL) onto a 2 cm×2 cm P81 (phosphocellulose, for positively charged peptide substrates) or Whatman No. 1 (for Poly (Glu4-Tyr) peptide substrate) paper square. The assay squares are washed 4 times, for 5 minutes each, with 0.75% phosphoric acid and washed once with acetone for 5 minutes. The assay squares are transferred to a scintillation vial, 5 ml scintillation cocktail are added and ^32P incorporation (cpm) to the peptide substrate is quantified with a Beckman scintillation counter. Percentage inhibition is calculated for each reaction.

[2] = molecular target: T2, c-RAF (Homo sapiens, UniProt P04049); test: as above; settings: at a concentration of 10 μM; 100% means complete inhibition; read-out: percentage inhibition of c-RAF
T2 construct: purchased Upstate (KinaseProfiler panel)
T2 sequence (P04049 whole entry): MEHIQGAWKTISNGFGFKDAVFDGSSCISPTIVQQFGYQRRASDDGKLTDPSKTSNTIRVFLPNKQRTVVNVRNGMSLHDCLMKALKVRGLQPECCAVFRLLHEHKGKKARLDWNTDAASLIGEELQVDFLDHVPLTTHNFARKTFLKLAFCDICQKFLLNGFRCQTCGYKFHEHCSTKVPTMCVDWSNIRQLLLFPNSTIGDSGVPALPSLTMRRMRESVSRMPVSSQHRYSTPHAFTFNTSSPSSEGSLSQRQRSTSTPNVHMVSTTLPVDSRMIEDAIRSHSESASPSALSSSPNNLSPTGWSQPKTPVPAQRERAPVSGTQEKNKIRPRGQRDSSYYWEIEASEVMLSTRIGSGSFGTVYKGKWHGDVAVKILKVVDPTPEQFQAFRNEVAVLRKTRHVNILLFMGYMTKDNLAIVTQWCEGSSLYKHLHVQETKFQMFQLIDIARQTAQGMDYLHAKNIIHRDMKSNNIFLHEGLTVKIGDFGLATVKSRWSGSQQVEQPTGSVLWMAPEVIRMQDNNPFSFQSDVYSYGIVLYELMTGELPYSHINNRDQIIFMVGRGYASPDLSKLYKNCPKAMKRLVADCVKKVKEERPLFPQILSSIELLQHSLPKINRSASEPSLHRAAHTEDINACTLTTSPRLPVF
Procedure: as §1

[3] = molecular target: T3, Lck (Homo sapiens, UniProt P06239); test: as above; settings: at a concentration of 10 μM; 100% means complete inhibition; read-out: percentage inhibition of Lck
T3 construct: purchased Upstate (KinaseProfiler panel)
T3 sequence (P06239 whole entry, species assumed): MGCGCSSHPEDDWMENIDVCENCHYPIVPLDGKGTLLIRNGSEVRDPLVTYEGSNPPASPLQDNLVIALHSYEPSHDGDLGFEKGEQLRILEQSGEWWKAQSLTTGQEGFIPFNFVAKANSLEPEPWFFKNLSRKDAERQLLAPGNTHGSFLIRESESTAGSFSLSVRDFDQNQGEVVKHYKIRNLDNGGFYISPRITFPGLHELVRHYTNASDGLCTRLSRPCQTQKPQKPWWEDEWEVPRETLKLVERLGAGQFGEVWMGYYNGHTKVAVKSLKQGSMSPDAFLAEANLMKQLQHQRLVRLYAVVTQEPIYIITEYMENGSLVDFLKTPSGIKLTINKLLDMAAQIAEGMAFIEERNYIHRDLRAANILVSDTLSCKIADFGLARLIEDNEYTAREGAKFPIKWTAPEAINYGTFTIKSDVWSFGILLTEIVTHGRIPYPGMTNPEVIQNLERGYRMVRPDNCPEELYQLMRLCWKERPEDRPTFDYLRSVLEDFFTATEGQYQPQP
Procedure: as §1

[4] = molecular target: T4, Abl (Homo sapiens, UniProt P00519); test: as above; settings: at a concentration of 10 μM; 100% means complete inhibition; read-out: percentage inhibition of Abl
T4 construct: purchased Upstate (KinaseProfiler panel)
T4 sequence (P00519 whole entry, species assumed): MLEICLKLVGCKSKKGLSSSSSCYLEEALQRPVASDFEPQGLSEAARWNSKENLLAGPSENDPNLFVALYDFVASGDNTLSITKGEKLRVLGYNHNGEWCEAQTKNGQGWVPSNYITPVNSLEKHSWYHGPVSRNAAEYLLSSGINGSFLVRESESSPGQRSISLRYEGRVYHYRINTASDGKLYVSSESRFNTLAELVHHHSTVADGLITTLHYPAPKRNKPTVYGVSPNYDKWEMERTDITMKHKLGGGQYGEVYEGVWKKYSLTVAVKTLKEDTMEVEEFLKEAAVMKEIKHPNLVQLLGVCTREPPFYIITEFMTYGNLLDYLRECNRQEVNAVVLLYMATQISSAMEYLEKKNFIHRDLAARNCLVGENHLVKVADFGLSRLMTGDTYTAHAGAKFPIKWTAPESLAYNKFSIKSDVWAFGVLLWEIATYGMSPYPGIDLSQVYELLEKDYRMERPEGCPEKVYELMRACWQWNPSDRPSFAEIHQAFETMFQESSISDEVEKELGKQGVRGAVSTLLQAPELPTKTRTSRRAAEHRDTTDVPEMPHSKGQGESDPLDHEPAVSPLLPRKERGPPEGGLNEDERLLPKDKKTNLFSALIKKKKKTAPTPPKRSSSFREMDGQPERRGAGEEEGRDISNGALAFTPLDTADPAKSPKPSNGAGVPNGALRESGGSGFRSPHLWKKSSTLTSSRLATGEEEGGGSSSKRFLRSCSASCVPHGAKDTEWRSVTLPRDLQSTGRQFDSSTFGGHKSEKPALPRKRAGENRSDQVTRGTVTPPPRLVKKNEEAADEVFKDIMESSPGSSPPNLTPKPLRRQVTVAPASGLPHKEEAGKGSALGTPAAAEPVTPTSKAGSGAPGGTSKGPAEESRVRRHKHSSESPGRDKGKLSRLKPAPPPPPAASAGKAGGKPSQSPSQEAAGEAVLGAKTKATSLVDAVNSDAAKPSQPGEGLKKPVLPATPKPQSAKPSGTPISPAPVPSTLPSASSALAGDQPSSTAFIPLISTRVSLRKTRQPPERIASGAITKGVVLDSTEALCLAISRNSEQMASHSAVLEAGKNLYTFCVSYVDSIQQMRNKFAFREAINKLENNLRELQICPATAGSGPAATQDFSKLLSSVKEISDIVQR
Procedure: as §1

[5] = molecular target: b-Raf (Homo sapiens, UniProt P15056); test: b-Raf kinase inhibition assay (IκBα substrate, 384-well plate); settings: read-out: IC50 against b-Raf
Chain of b-Raf (P15056 whole entry): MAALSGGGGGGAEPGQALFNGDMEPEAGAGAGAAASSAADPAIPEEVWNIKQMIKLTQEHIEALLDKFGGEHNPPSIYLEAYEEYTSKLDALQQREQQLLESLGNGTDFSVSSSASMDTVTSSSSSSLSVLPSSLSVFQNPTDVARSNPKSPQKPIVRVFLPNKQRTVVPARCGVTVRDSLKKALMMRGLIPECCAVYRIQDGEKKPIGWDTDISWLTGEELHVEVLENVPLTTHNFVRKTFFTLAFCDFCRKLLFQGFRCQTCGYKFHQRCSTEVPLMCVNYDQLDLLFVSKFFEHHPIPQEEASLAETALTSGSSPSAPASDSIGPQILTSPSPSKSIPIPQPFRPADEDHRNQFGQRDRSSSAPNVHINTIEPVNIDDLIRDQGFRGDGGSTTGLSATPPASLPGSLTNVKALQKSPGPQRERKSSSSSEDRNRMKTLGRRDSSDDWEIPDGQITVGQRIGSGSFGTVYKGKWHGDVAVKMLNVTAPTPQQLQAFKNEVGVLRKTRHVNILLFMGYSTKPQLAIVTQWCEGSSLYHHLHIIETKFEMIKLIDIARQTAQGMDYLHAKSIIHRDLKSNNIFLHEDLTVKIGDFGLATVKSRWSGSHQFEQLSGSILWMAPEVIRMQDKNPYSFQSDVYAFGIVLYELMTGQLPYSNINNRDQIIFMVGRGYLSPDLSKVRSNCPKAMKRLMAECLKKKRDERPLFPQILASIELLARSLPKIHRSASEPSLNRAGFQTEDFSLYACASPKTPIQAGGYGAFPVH
Procedure: Compounds of the invention are tested for their ability to inhibit the activity of b-Raf. The assay is carried out in 384-well MaxiSorp plates (NUNC) with black walls and clear bottom. The substrate, IκBα is diluted in DPBS (1:750) and 15 μl is added to each well. The plates are incubated at 4° C. overnight and washed 3 times with TBST (25 mM Tris, pH 8.0, 150 mM NaCl and 0.05% Tween-20) using the EMBLA plate washer. Plates are blocked by Superblock (15 μl/well) for 3 hours at room temperature, washed 3 times with TBST and pat-dried. Assay buffer containing 20 μM ATP (10 μl) is added to each well followed by 100 nl or 500 nl of compound. B-Raf is diluted in the assay buffer (1 μl into 25 μl) and 10 μl of diluted b-Raf is added to each well (0.4 μg/well). The plates are incubated at room temperature for 2.5 hours. The kinase reaction is stopped by washing the plates 6 times with TBST. Phosph-IκBα (Ser32/36) antibody is diluted in Superblock (1:10,000) and 15 μl is added to each well. The plates are incubated at 4° C. overnight and washed 6 times with TBST. AP-conjugated goat-anti-mouse IgG is diluted in Superblock (1:1,500) and 15 μl is added to each well. Plates are incubated at room temperature for 1 hour and washed 6 times with TBST. […] Plates are read on Acquest or Analyst GT using a Fluorescence Intensity Nanxin BBT anion (505 dichroic mirror).

`Oc1ccc2cc(-c3nc(-c4ccccc4)[nH]c3-c3ccncc3)ccc2c1` [Compound 11, 6-(2-phenyl-5-pyridin-4-yl-1H-imidazol-4-yl)-naphthalen-2-ol] showed an inhibition at 10 µM [1] of 74%, an inhibition at 10 µM [2] of 98% and an inhibition at 10 µM [3] of 61%. For the same compound, the inhibition at 10 µM [4] was 98% and the IC50 [5] was 300 nM.

`CN(C)c1ccc(NC(=O)Oc2ccc3cc(-c4nc(-c5ccccc5)[nH]c4-c4ccncc4)ccc3c2)cc1` [Compound 15, (4-dimethylamino-phenyl)-carbamic acid 6-(2-phenyl-5-pyridin-4-yl-1H-imidazol-4-yl)-naphthalen-2-yl ester] gave an IC50 [5] of 879 nM.
